This note sets out measurements from PubChem BioAssay AID434987 (Southern Research Specialized Biocontainment Screening …, 2010).

The subject of the experiment is M. tuberculosis H37Rv growth inhibition with meropenem. In words: dose response, H37Rv, with and without meropenem (AID 434987).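 Further: growth over 7 days at 37 °C before Alamar Blue read on day 9.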
[1] abbreviates: M. tuberculosis H37Rv growth inhibition, measured here: IC50 without meropenem.
Where [2] appears, read: M. tuberculosis H37Rv growth inhibition, measured here: IC90 without meropenem.
[3] abbreviates: measured here: IC90 with meropenem.

The source made the active and inactive calls. How the calls were made is not given here. Bounds are passed on as bounds.

For the compound `NNC(=S)Nc1ccc(C(F)(F)F)cc1Cl`, the IC50 was > 100 µM (inactive). Under setting [1], this compound yielded an IC50 above 100 µM. Under setting [2], this compound showed a concentration for an effect of 90% (IC90) above 100 µM. This compound returned an IC90 under setting [3] above 100 µM.

Take `CC(C)(C)c1ccc(OCC(=O)N/N=C/c2cc(Br)ccc2OC(=O)c2ccco2)cc1`: the IC50 is 82.7 µM (inactive). Under setting [1], this compound gave a 50% inhibitory concentration (IC50) above 100 µM. The IC90 under setting [2] was above 100 µM. For the same compound, the IC90 under setting [3] was above 100 µM.

As to `O=C(NCc1ccc2c(c1)OCO2)Nc1ccc2ccccc2c1`, the IC50 is 78.3 µM (inactive). Also, under setting [1], the IC50 is above 100 µM. Further, the IC90 under setting [2] was above 100 µM. Further, the IC90 under setting [3] was above 100 µM.

On to `NC(=S)N/N=C/c1ccc([N+](=O)[O-])cc1`, for which the IC50 was 31.7 µM. The half-inhibitory concentration (IC50) under setting [1] is above 100 µM. Further, the IC90 under setting [2] was above 100 µM. Also, under setting [3], the concentration for an effect of 90% (IC90) was above 100 µM.

For `COC(=O)c1cnn(-c2ccccc2)c1/C=N/NC(=S)Nc1ccc(Cl)cc1`, the IC50 was 33.1 µM. The compound further came in with an IC50 under setting [1] above 100 µM. For the same compound, the IC90 under setting [2] is above 100 µM. Besides, the IC90 under setting [3] is above 100 µM.

As for `O=C(Nc1ccc(Cl)cc1)C1CC2CCCC(C1)C2=O` (stereo not drawn), the IC50 was > 100 µM (inactive). Under setting [1], this compound yielded an IC50 above 100 µM. Further, the concentration for an effect of 90% (IC90) under setting [2] was above 100 µM. The IC90 under setting [3] is above 100 µM.

With `CCOc1ccc(N=c2cc(-c3ccc(OC)cc3)oc3ccccc23)cc1`, the IC50 is 45.2 µM (inactive). Further, the IC50 under setting [1] turned out to be 40.1 µM. This compound also yielded a concentration for an effect of 90% (IC90) under setting [2] of 44.4 µM. This compound also returned an IC90 under setting [3] of 50.3 µM.

`CCC(=O)NC(=S)Nc1ccc(-c2nc3ccccc3s2)cc1`: the IC50 was > 100 µM (inactive). Further, the IC50 under setting [1] is above 100 µM. The concentration for an effect of 90% (IC90) under setting [2] was above 100 µM. Besides, under setting [3], the IC90 was above 100 µM.

`COc1ccc(-c2cc(C(N)=O)nc(N3CCCCCC3)n2)cc1`: the IC50 was 3.95 µM. This compound yielded an IC50 under setting [1] above 100 µM. The 90% effect concentration (IC90) under setting [2] was above 100 µM. The IC90 under setting [3] was above 100 µM.

`Cc1n[nH]c(C)c1CCCOc1ccccc1`: the IC50 is 24.1 µM (inactive). For the same compound, the concentration for half-maximal inhibition (IC50) under setting [1] stood at 39.5 µM. The compound further displayed a 90% effect concentration (IC90) under setting [2] above 100 µM. Also, the IC90 under setting [3] is above 100 µM.

For the compound `CCOc1cc(CNC(C)C)c(Cl)cc1OCC(=O)NCCc1ccccc1`, the IC50 is > 100 µM (inactive). Further, the half-inhibitory concentration (IC50) under setting [1] was above 100 µM. Also, the IC90 under setting [2] is above 100 µM. In addition, the 90% effect concentration (IC90) under setting [3] was above 100 µM.

As to `O=C(Nc1ccc2oc(-c3ccc(Cl)c(Cl)c3)nc2c1)c1ncn[nH]1`, the IC50 is 61.9 µM (inactive). The IC50 under setting [1] stood at 79.8 µM. The IC90 under setting [2] was above 100 µM. Moreover, the IC90 under setting [3] was above 100 µM.

Turning to `c1ccc(-c2ccc(C3=Nn4c(Cn5nnc6ccccc65)nnc4SC3)cc2)cc1`, the IC50 is 53.5 µM (inactive). The half-maximal inhibitory concentration (IC50) under setting [1] is 84.4 µM. Further, under setting [2], the IC90 was above 100 µM. The compound also came in with a 90% effect concentration (IC90) under setting [3] above 100 µM.

In the case of `COc1c(NC(C)=O)c2ccccc2c2ccccc12`, the IC50 was > 100 µM (inactive). Further, the IC50 under setting [1] was above 100 µM. Under setting [2], this compound had an IC90 above 100 µM. Under setting [3], this compound displayed an IC90 above 100 µM.

Take `Cc1cc(NC(=O)/C=C/c2ccccc2Cl)n(-c2nc3ccccc3[nH]2)n1`: the concentration for half-maximal inhibition (IC50) is 1.94 µM. Besides, the IC50 under setting [1] is above 100 µM. Under setting [2], this compound came in with an IC90 above 100 µM. For the same compound, under setting [3], the IC90 was above 100 µM.

`Cc1ccc(-n2c(SCC(=O)OC(C)C)nnc2-c2ccco2)cc1`: the IC50 was 37.6 µM (inactive). In addition, under setting [1], the half-maximal inhibitory concentration (IC50) was found to be 62 µM. Further, the IC90 under setting [2] was above 100 µM. Under setting [3], this compound had a concentration for an effect of 90% (IC90) above 100 µM.

For the compound `CC1CCCN(C(=O)C2CCN(c3ncnc4c3nc3n4CCCCC3)CC2)C1` (stereo not drawn), the IC50 was 46.7 µM (inactive). Under setting [1], this compound yielded an IC50 of 89.8 µM. The compound further registered an IC90 under setting [2] above 100 µM. The compound also came in with a 90% effect concentration (IC90) under setting [3] of 49.7 µM.

For `COc1ccc([N+](=O)[O-])cc1C1NN=C(c2ccccc2O)S1` (stereo not drawn), the IC50 was > 100 µM (inactive). Besides, the half-maximal inhibitory concentration (IC50) under setting [1] was above 100 µM. Besides, the 90% effect concentration (IC90) under setting [2] is above 100 µM. Under setting [3], this compound showed an IC90 above 100 µM.

`O=C(Nc1cccc(C(F)(F)F)c1)N1CCC(c2nc(-c3ccc(F)cc3)no2)CC1`: the IC50 was > 100 µM (inactive). This compound also showed a half-inhibitory concentration (IC50) under setting [1] above 100 µM. In addition, the concentration for an effect of 90% (IC90) under setting [2] was above 100 µM. This compound displayed an IC90 under setting [3] above 100 µM.

For `CCN(CC)c1ccc(CN2CCCCCC2)cc1`, the IC50 was 43.6 µM (inactive). Also, the concentration for half-maximal inhibition (IC50) under setting [1] is 48.1 µM. The compound also yielded a 90% effect concentration (IC90) under setting [2] above 100 µM. In addition, under setting [3], the IC90 was determined as 49.4 µM.

For `CC[C@@](C)(NS(=O)(=O)OCC(Cl)(Cl)Cl)c1ccccc1`, the IC50 is 50.1 µM (inactive). Besides, under setting [1], the IC50 worked out at 95 µM. Under setting [2], this compound yielded a 90% effect concentration (IC90) above 100 µM. Under setting [3], this compound yielded an IC90 of 54.8 µM.

As for `CC(C)=CCC/C(C)=C/C=N/NC(=O)c1ccc([N+](=O)[O-])cc1`, the 50% inhibitory concentration (IC50) was 1.02 µM. The same compound showed a concentration for half-maximal inhibition (IC50) under setting [1] of 49 µM. In addition, the concentration for an effect of 90% (IC90) under setting [2] is above 100 µM. Under setting [3], this compound came in with a 90% effect concentration (IC90) above 100 µM.

In the case of `Cc1cc(C)c2sc(N(CCCN(C)C)C(=O)COc3ccc(Cl)cc3)nc2c1`, the IC50 is 36.6 µM (inactive). Also, the IC50 under setting [1] was 53.6 µM. Besides, the IC90 under setting [2] came out at 80.2 µM. The compound also displayed an IC90 under setting [3] above 100 µM.

As to `COc1ccc(-c2nn(-c3ccccc3)cc2C(=O)Nc2nccs2)cc1OC`, the IC50 was > 100 µM (inactive). Under setting [1], this compound yielded a half-inhibitory concentration (IC50) above 100 µM. Further, the IC90 under setting [2] is above 100 µM. The concentration for an effect of 90% (IC90) under setting [3] was above 100 µM.

For the compound `O=c1oc(-c2ccccc2F)nc2scc(-c3ccccc3)c12`, the IC50 was 2.19 µM. Moreover, under setting [1], the IC50 is above 100 µM. Further, the concentration for an effect of 90% (IC90) under setting [2] is above 100 µM. This compound also registered an IC90 under setting [3] of 3.05 µM.

For the compound `O=C(NC1CCCC1)c1ccccc1OCc1ccccc1`, the IC50 is 5.69 µM. The IC50 under setting [1] was determined as 37.6 µM. Moreover, the IC90 under setting [2] was above 100 µM. The IC90 under setting [3] was above 100 µM.

Regarding `CO/N=C(\C(=O)N[C@@H]1C(=O)N2C(C(=O)O)=C(COC(C)=O)CS[C@H]12)c1csc(N)n1` (stereo in doubt), the IC50 is 10.3 µM. This compound also yielded an IC50 under setting [1] above 100 µM. Under setting [2], this compound yielded a concentration for an effect of 90% (IC90) above 100 µM. The same compound had a 90% effect concentration (IC90) under setting [3] of 41.7 µM.

For the compound `CONC(=O)c1cc(OCC(F)(F)F)ccc1OCC(F)(F)F`, the IC50 is > 100 µM (inactive). The same compound gave a half-maximal inhibitory concentration (IC50) under setting [1] above 100 µM. Under setting [2], the IC90 is above 100 µM. The compound also gave a 90% effect concentration (IC90) under setting [3] above 100 µM.

`CC(C)(C)C1CCC(OCC(O)CN2CCN(c3ccccn3)CC2)CC1` (stereo not drawn): the IC50 was 100 µM (inactive). Also, the IC50 under setting [1] was above 100 µM. In addition, the IC90 under setting [2] is above 100 µM. For the same compound, the IC90 under setting [3] was above 100 µM.

As for `C/C(=N\NC(=O)c1ccncc1)c1c(O)n(-c2ccccc2)c(=O)[nH]c1=O`, the IC50 was 2.81 µM (inactive). Under setting [1], this compound registered an IC50 of 5.74 µM. Under setting [2], this compound gave a 90% effect concentration (IC90) above 100 µM. Further, the IC90 under setting [3] amounted to 3.94 µM.

Consider `COc1ccccc1N(C)S(=O)(=O)c1ccc(C(=O)OCC(=O)N2CCCCCC2)cc1`, for which the IC50 was > 50 µM (inactive). The compound further gave an IC50 under setting [1] above 100 µM. Under setting [2], this compound had a 90% effect concentration (IC90) above 100 µM. This compound gave a concentration for an effect of 90% (IC90) under setting [3] above 50 µM.

Consider `c1ccc(CSc2nnc(-c3ccco3)o2)cc1`, for which the IC50 was > 100 µM (inactive). Besides, the IC50 under setting [1] was above 100 µM. In addition, the IC90 under setting [2] is above 100 µM. Also, the IC90 under setting [3] is above 100 µM.

The term IC50 denotes the concentration needed to halve the response being measured. What is called IC90 is the concentration needed for an effect of 90%.
